Results published in publication PMC10627047, “Flavone-based dual PARP-Tubulin inhibitor manifesting efficacy against endometrial cancer” (Journal of Enzyme Inhibition and Medicinal Chemistry, 2023).
“And” between values parts separate entries of the source, which are not always exact repeats. Identical values can stand only once.

Experiments:
PARP1 = molecular target: T1, PARP1 (Homo sapiens, UniProt P09874); assay: PARP inhibitory assay (NAD/NADH-Glo endpoint, Reaction Biology); assay type: biochemical; details: 10-dose IC50, 3-fold serial dilution
T1 construct: Reaction Biology Corporation (assay service)
T1 sequence (P09874 whole entry): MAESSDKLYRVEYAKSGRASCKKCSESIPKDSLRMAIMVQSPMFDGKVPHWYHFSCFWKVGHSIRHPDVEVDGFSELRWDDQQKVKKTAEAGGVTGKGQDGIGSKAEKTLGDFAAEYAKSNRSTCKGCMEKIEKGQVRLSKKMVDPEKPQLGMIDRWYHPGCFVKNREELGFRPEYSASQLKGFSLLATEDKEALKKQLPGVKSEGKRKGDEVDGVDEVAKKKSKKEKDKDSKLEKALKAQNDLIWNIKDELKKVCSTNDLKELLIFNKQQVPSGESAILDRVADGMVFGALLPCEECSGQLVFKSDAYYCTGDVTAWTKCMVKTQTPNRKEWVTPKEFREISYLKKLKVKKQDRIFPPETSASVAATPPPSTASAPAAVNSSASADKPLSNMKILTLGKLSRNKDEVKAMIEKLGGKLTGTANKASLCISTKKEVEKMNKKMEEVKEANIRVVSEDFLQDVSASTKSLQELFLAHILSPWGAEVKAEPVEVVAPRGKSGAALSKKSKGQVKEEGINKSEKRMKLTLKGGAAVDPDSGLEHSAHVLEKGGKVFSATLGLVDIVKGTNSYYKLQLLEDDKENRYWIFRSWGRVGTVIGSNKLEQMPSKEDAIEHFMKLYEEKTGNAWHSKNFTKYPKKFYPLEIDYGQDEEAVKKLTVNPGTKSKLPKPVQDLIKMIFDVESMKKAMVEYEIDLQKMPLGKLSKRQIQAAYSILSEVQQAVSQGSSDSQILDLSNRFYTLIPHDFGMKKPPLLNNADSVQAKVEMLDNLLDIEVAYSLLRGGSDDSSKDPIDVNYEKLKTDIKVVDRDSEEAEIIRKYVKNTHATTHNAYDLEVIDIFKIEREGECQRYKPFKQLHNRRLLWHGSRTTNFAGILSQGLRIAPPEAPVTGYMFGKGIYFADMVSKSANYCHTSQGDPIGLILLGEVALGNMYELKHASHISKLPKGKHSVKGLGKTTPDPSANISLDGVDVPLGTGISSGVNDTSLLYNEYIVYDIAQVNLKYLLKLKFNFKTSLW
Experimental: (§1) As such, PARP enzymatic activity transfers ADP-ribose from NAD + substrate into the PAR chain on histone substrate. The amount of NAD + remaining after the enzymatic activity was quantified using the Promega NAD/NADH-Glo™ assay kit, in the endpoint PARP activity assay.
(§2) Enzyme inhibition assays were performed by the Reaction Biology Corporation, Malvern, PA. (http://www.reactionbiology.com). PARP enzymatic activity transfers ADP-ribose from NAD + substrate into the PAR chain on histone substrate. […] NAD+ (Nicotinamide Adenine Dinucleotide), 500 nM; Protein substrate for PARP1, core histones from chicken, 10 µg/mL; protein substrate for PARP2, 5 µM.

PARP2 = molecular target: T2, PARP2 (Homo sapiens, UniProt Q9UGN5); assay: as above; assay type: biochemical; details: 10-dose IC50, 3-fold serial dilution
T2 construct: Reaction Biology Corporation (assay service)
T2 sequence (Q9UGN5 whole entry): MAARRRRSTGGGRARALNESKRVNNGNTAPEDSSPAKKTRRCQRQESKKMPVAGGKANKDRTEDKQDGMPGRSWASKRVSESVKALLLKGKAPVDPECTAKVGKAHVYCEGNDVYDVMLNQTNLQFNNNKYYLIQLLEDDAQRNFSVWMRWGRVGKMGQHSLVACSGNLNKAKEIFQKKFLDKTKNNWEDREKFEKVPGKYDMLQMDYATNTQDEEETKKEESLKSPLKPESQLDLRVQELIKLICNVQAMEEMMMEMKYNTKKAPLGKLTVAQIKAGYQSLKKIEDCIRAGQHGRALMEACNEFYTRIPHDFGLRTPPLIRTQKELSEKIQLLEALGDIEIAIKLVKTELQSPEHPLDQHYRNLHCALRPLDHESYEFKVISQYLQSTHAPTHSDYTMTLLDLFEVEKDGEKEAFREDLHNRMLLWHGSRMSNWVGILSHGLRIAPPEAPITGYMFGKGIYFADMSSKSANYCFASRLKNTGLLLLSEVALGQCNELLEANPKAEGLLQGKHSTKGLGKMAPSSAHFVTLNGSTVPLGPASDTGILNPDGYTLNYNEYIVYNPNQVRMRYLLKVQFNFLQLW
Experimental: as §1, §2

Ishikawa cells [1] = assay: Nuclear and cellular morphology (DAPI staining), apoptosis; assay type: cell-based, human; details: Ishikawa cells, 0.1, 0.5 and 1 μM, 24 h
Experimental: Ishikawa cell lines were treated with compound 14 at concentrations of 0.1, 0.5, and 1 μM for 24 h. Cellular morphology was observed by an inverted microscope. DAPI staining was done to monitor the nuclear morphology. […] Thus, the results were indicative of the apoptosis-inducing ability of compound 14 (Figure 9).
Ishikawa was treated with compounds 14 at concentrations of 0.1, 0.5, and 1 μM for 24 h. Briefly, cells were collected, washed twice with PBS, and fixed with methanol: acetic acid (3:1 ratio v/v). The next day, cells were washed and dispensed in 50 μL of fixing solution. Cells were then spread on clean slides, and exposed to DAPI solution (4′,6-diamidino-2-phenylindole(DAPI) (CAS Number: 28718–90-3) (5 μg/mL in 0.01 M citric acid and 0.45 M disodium phosphate containing 0.05% Tween 20) for 30 min at room temperature. The slides were then rinsed with distilled water for 10 min, and washed with PBS. After drying, the slides were mounted with glycerol: PBS (1:1 ratio v/v) and observed under the fluorescent microscope to figure out any nuclear morphological changes that occur during apoptosis.[60]

LC3 in Ishikawa cells = assay: Western blotting, cleavage of LC-3; assay type: cell-based, human; details: Ishikawa cells, 100, 500 and 1000 nM, 24 h
Experimental: Literature precedents indicate that autophagy triggers the cleavage of tubulin-associated protein LC-3 yielding cytosolic LC3-I (18 kDa) and autophagosome-associated LC3-II (16 kDa).[50–58] Thus, the ability of compound 14 was evaluated to induce the cleavage of this cytosolic protein. […] Considering the aforementioned cleavage of cytosolic microtubule-associated protein light chain-3 (LC3)-I into LC3-II as an autophagy-specific marker, it was deduced that 14 is an autophagy inducer.
Ishikawa cells were treated with compound-14 at 100, 500, and 1000 nM concentrations for 24 h. After 24h cells were collected and centrifuged at 400 g, washed in PBS and cell pellets were lysed in RIPA buffer in preparation of the whole cell lysate. Supernatants were collected and proteins were estimated using the Bradford reagent. An equal amount of protein (60–80 µg) was loaded into each well for SDS-PAGE. Blocking was done with 5% BSA at room temperature with shaking for 2 h. After the SDS page run was completed, we washed the PVDF membrane and then blocking was done. Blots were incubated with different primary antibodies(1:1000 dilutions), and secondary antibodies (1:10 000 dilutions) and chemiluminescence was captured on Chemidoc after incubating the blots in ECL plus solution. […]

Ishikawa cells [2] = assay: Mitochondrial membrane potential (rhodamine 123 staining); assay type: cell-based, human; details: Ishikawa cells, 0.1, 0.5 and 1 μM, 24 h
Experimental: Mitochondrial membrane potential was measured by rhodamine-123 (RH-123) staining. Ishikawa cells were treated at 0.1, 0.5, and 1 μM of compound 14. Rhodamine dyes accumulate within active and polarised mitochondria under physiological conditions, resulting in robust fluorescence signals. A decline in rhodamine fluorescence intensity is observed when the dyes fail to accumulate within the mitochondria. This happens when the mitochondrial transmembrane potential is compromised. […] The decreased fluorescence patterns associated with apoptotic cell death indicate progressive dissipation of the mitochondrial transmembrane potential (Figure 12).
Rhodamine staining was employed to investigate apoptosis induced by compound 14 in Ishikawa cells. Under physiological conditions, rhodamine dyes are known to accumulate within active and polarised mitochondria, resulting in robust fluorescence signals. However, when the mitochondrial transmembrane potential is compromised the dyes fail to accumulate within the mitochondria, leading to a decline in rhodamine fluorescence intensity. The Rhodamine staining protocol followed was as follows: Ishikawa cells were treated at 0.1, 0.5, and 1 μM for 24 h, and RH-123 (1 μg) (Cat No. R8004) was added 30 min before the termination of the experiment and then washed with PBS before analysis on a fluorescence microscope.[61]

Ishikawa cells [3] = assay: Intracellular ROS (DCFDA staining); assay type: cell-based, human; details: Ishikawa cells, 100, 500 and 1000 nM, 24 h, vs untreated control
Excerpt: The intracellular ROS levels in control and compound 14-treated cells were examined using the DCFDA fluorescent dye.
Dichlorodihydrofluorescin diacetate (DCFHDA) is a fluorogenic dye that measures hydroxyl, peroxyl, and other reactive oxygen species (ROS) activity within the cell. The oxidative conversion of DCFH-DA to DCF (2′, 7′ -dichlorofluorescein) leads to the detection of intracellular ROS. As such, an increase in intracellular ROS is indicative of apoptosis in cancer cells Ishikawa cells were treated with compound-14 at 100, 500, and 1000 nM concentrations for 24 h. After 24h cells were stained with DCFHDA (20 µM) (Cat no, 287810) for 45 min. After 45 min, cells were washed with PBS buffer and analysed with a fluorescence microscope.

[4] = system: CDK1 protein in Ishikawa cells; assay: Western blotting, cell cycle proteins; assay type: cell-based, human; details: 24 h treatment
Experimental: Western blot analysis was performed to assess the involvement of proteins in the cell cycle arrest effects of compound 14 on Ishikawa cells.
Ishikawa cells were treated with compound-14 at 100, 500, and 1000 nM concentrations for 24 h. After 24h cells were collected and centrifuged at 400 g, washed in PBS and cell pellets were lysed in RIPA buffer in preparation of the whole cell lysate. Supernatants were collected and proteins were estimated using the Bradford reagent. An equal amount of protein (60–80 µg) was loaded into each well for SDS-PAGE. Blocking was done with 5% BSA at room temperature with shaking for 2 h. After the SDS page run was completed, we washed the PVDF membrane and then blocking was done. Blots were incubated with different primary antibodies(1:1000 dilutions), and secondary antibodies (1:10 000 dilutions) and chemiluminescence was captured on Chemidoc after incubating the blots in ECL plus solution.
Primary Antibodies: LC3B Antibody (Cell signalling Technology, Cat No:2775), Cyclin B1 (Cell signalling Technology, Cat No:4138), SKP-2 (Cell signalling Technology, Cat No:4358), CDK1 (Abcam, Anti-CDK1 antibody [A17]), cdc25c (Cell signalling Technology, Cat No:4688); internal control: Actin (Sigma Aldrich, Cat No: A5441);

## O=c1cc(-c2ccc(F)cc2)oc2cc(-c3ccoc3)ccc12 [Compound 14, 2–(4-fluorophenyl)-7-(furan-3-yl)-4H-chromen-4-one]
PARP1
  IC50: 74 nM and 74.6 nM
PARP2
  IC50: 109 nM
Ishikawa cells [1]
  Apoptosis induction (nuclear morphology, DAPI staining): concentration-dependent increase in the number of scattered apoptotic bodies
LC3 in Ishikawa cells
  Cleavage of LC-3 (autophagy marker, western blot): concentration-dependent cleavage of LC3
Ishikawa cells [2]
  Mitochondrial membrane potential (rhodamine 123 fluorescence): reduction in rhodamine fluorescence in a concentration-dependent manner
Ishikawa cells [3]
  Intracellular ROS levels (DCFDA fluorescence): significant increase in fluorescence intensity
[4]
  Expression of CDK1 protein (western blot): downregulated the expression of CDK1 protein
